# Assay results published in patent EP2970215B1, “PYRROLIDINE DERIVATIVES, PHARMACEUTICAL COMPOSITIONS CONTAINING THEM, AND THEIR USE IN THERAPY” (AbbVie Deutschland GmbH & Co. KG, priority 2013, dated 2014).
# Molecular target: T1, human GlyT1c transporter (Homo sapiens, UniProt P48067)
# T1 construct: expressed in transfected cells; host or cells: CHO cells (recombinant; line hGlyT1c_5_CHO is named for the uptake assay)
# T1 sequence (P48067 1-706): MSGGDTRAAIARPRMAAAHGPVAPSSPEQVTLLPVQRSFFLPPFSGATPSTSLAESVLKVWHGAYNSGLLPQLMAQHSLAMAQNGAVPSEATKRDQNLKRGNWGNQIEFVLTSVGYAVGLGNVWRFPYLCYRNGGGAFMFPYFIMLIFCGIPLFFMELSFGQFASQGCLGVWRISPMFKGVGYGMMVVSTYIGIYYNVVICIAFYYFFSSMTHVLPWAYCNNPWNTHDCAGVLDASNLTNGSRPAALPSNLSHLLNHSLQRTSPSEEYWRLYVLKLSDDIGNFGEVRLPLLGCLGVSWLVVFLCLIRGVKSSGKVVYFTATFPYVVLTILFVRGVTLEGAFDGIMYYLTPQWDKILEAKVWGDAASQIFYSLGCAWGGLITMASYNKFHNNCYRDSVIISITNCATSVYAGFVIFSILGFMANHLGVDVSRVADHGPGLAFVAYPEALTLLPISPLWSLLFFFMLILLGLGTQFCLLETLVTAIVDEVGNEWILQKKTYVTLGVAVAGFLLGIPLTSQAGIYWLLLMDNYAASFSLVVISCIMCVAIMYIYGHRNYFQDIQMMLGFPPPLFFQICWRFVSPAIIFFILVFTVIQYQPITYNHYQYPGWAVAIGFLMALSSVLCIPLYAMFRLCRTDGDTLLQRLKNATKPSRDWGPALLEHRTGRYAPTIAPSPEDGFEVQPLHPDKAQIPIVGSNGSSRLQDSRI
# Experiment: Radioligand binding assay using recombinant CHO cell membranes expressing human GlyT1
# Conditions: radioligand binding to human GlyT1c transporter-expressing membranes
# From the text: 2. Radioligand binding assays using recombinant CHO cell membranes expressing human GlyT1: […]
row,Compound,Ki [nM]
1,"CC(C)c1cccc(N[C@@H]2CN(S(=O)(=O)c3cn(C)cn3)C[C@H]2c2ccc(F)cc2)c1 (relative stereo) [Example 170, trans-4-(4-fluorophenyl)-1-[(1-methyl-1H-imidazol-4-yl)sulfonyl]-N-[3-(propan-2-yl)phenyl]pyrrolidin-3-amine]",≤ 100
2,"Cn1cnc(S(=O)(=O)N2C[C@@H](Nc3cccc(C(C)(C)C)c3)[C@H](c3ccc(F)cc3)C2)c1 (relative stereo) [Example 171, trans-N-(3-tert-butylphenyl)-4-(4-fluorophenyl)-1-[(1-methyl-1H-imidazol-4-yl)sulfonyl]pyrrolidin-3-amine]",≤ 100
3,"Cn1cnc(S(=O)(=O)N2C[C@@H](Nc3ccc(Cl)c(C(F)(F)F)c3)[C@H](c3ccc(F)cc3)C2)c1 (relative stereo) [Example 172, trans-N-[4-chloro-3-(trifluoromethyl)phenyl]-4-(4-fluorophenyl)-1-[(1-methyl-1H-imidazol-4-yl)sulfonyl]pyrrolidin-3-amine]",≤ 100
4,"Cn1cnc(S(=O)(=O)N2C[C@@H](Nc3ccc(C(F)(F)F)c(Cl)c3)[C@H](c3ccc(F)cc3)C2)c1 (relative stereo) [Example 173, trans-N-[3-chloro-4-(trifluoromethyl)phenyl]-4-(4-fluorophenyl)-1-[(1-methyl-1H-imidazol-4-yl)sulfonyl]pyrrolidin-3-amine]",≤ 1000
5,"Cn1cnc(S(=O)(=O)N2C[C@@H](Nc3cc(F)cc(Cl)c3)[C@H](c3ccc(F)cc3)C2)c1 (relative stereo) [Example 174, trans-N-(3-chloro-5-fluorophenyl)-4-(4-fluorophenyl)-1-[(1-methyl-1H-imidazol-4-yl)sulfonyl]pyrrolidin-3-amine]",≤ 1000
6,"Cn1cnc(S(=O)(=O)N2C[C@@H](Nc3cc(F)c(F)c(Cl)c3)[C@H](c3ccc(F)cc3)C2)c1 (relative stereo) [Example 175, trans-N-(3-chloro-4,5-difluorophenyl)-4-(4-fluorophenyl)-1-[(1-methyl-1H-imidazol-4-yl)sulfonyl]pyrrolidin-3-amine]",≤ 1000
7,"Cn1cnc(S(=O)(=O)N2C[C@@H](Nc3ccncc3)[C@H](c3ccc(F)cc3)C2)c1 (relative stereo) [Example 177, N-{trans-4-(4-fluorophenyl)-1-[(1-methyl-1H-imidazol-4-yl)sulfonyl]pyrrolidin-3-yl}pyridin-4-amine]",≤ 10000
8,"Cn1cnc(S(=O)(=O)N2C[C@@H](Nc3ccccn3)[C@H](c3ccc(F)cc3)C2)c1 (relative stereo) [Example 178, N-{trans-4-(4-fluorophenyl)-1-[(1-methyl-1H-imidazol-4-yl)sulfonyl]pyrrolidin-3-yl}pyridin-2-amine]",≤ 1000
9,"Cn1cnc(S(=O)(=O)N2C[C@@H](Nc3cccnc3)[C@H](c3ccc(F)cc3)C2)c1 (relative stereo) [Example 179, N-{trans-4-(4-fluorophenyl)-1-[(1-methyl-1H-imidazol-4-yl)sulfonyl]pyrrolidin-3-yl}pyridin-3-amine]",≤ 10000
10,"Cn1cnc(S(=O)(=O)N2C[C@@H](Nc3cccc(C(F)(F)F)n3)[C@H](c3ccc(F)cc3)C2)c1 (relative stereo) [Example 180, N-{trans-4-(4-fluorophenyl)-1-[(1-methyl-1H-imidazol-4-yl)sulfonyl]pyrrolidin-3-yl}-6-(trifluoromethyl)pyridin-2-amine]",≤ 1000
11,"Cn1cnc(S(=O)(=O)N2C[C@H](c3ccccc3)[C@H](Nc3ccccc3)C2)c1 (relative stereo) [Example 184, (cis)-1-[(1-methyl-1H-imidazol-4-yl)sulfonyl]-N,4-diphenylpyrrolidin-3-amine]",≤ 10000
12,"Cn1cnc(S(=O)(=O)N2C[C@@H](Nc3ccccc3)[C@H](c3cccc(F)c3)C2)c1 (relative stereo) [Example 185, trans-4-(3-fluorophenyl)-1-[(1-methyl-1H-imidazol-4-yl)sulfonyl]-N-phenylpyrrolidin-3-amine]",≤ 10000
13,"Cn1cnc(S(=O)(=O)N2C[C@@H](Nc3cccc(F)c3)[C@H](c3cccc(F)c3)C2)c1 (relative stereo) [Example 186, trans-N,4-bis(3-fluorophenyl)-1-[(1-methyl-1H-imidazol-4-yl)sulfonyl]pyrrolidin-3-amine]",≤ 1000
14,"Cn1cnc(S(=O)(=O)N2C[C@@H](Nc3ccc(F)cc3)[C@H](c3cccc(F)c3)C2)c1 (relative stereo) [Example 187, trans-4-(3-fluorophenyl)-N-(4-fluorophenyl)-1-[(1-methyl-1H-imidazol-4-yl)sulfonyl]pyrrolidin-3-amine]",≤ 10000
15,"Cn1cnc(S(=O)(=O)N2C[C@@H](Nc3cccc(Cl)c3)[C@H](c3cccc(F)c3)C2)c1 (relative stereo) [Example 188, trans-N-(3-chlorophenyl)-4-(3-fluorophenyl)-1-[(1-methyl-1H-imidazol-4-yl)sulfonyl]pyrrolidin-3-amine]",≤ 100
16,"Cn1cnc(S(=O)(=O)N2C[C@@H](Nc3cccc(C(F)(F)F)c3)[C@H](c3cccc(F)c3)C2)c1 (relative stereo) [Example 189, trans-4-(3-fluorophenyl)-1-[(1-methyl-1H-imidazol-4-yl)sulfonyl]-N-[3-(trifluoromethyl)phenyl]pyrrolidin-3-amine]",≤ 100
17,"Cn1cnc(S(=O)(=O)N2C[C@@H](Nc3ccc(C(F)(F)F)cc3)[C@H](c3cccc(F)c3)C2)c1 (relative stereo) [Example 190, trans-4-(3-fluorophenyl)-1-[(1-methyl-1H-imidazol-4-yl)sulfonyl] -N-[4-(trifluoromethyl)phenyl]pyrrolidin-3-amine]",≤ 1000
18,"Cn1cnc(S(=O)(=O)N2C[C@@H](Nc3ccncc3)[C@H](c3cccc(F)c3)C2)c1 (relative stereo) [Example 191, N-{trans-4-(3-fluorophenyl)-1-[(1-methyl-1H-imidazol-4-yl)sulfonyl]pyrrolidin-3-yl}pyridin-4-amine]",≤ 10000
19,"Cn1cnc(S(=O)(=O)N2C[C@@H](Nc3ccc(Cl)c(Cl)c3)[C@H](c3cccc(F)c3)C2)c1 (relative stereo) [Example 192, trans-N-(3,4-dichlorophenyl)-4-(3-fluorophenyl)-1-[(1-methyl-1H-imidazol-4-yl)sulfonyl]pyrrolidin-3-amine]",≤ 1000
20,"Cn1cnc(S(=O)(=O)N2C[C@@H](Nc3ccc(Cl)c(F)c3)[C@H](c3cccc(F)c3)C2)c1 (relative stereo) [Example 193, trans-N-(4-chloro-3-fluorophenyl)-4-(3-fluorophenyl)-1-[(1-methyl-1H-imidazol-4-yl)sulfonyl]pyrrolidin-3-amine]",≤ 10000
21,"Cn1cnc(S(=O)(=O)N2C[C@@H](Nc3ccc(F)c(Cl)c3)[C@H](c3cccc(F)c3)C2)c1 (relative stereo) [Example 194, trans-N-(3-chloro-4-fluorophenyl)-4-(3-fluorophenyl)-1-[(1-methyl-1H-imidazol-4-yl)sulfonyl]pyrrolidin-3-amine]",≤ 100
22,"Cn1cnc(S(=O)(=O)N2C[C@@H](Nc3cccc(C(F)(F)F)n3)[C@H](c3cccc(F)c3)C2)c1 (relative stereo) [Example 195, N-{trans-4-(3-fluorophenyl)-1-[(1-methyl-1H-imidazol-4-yl)sulfonyl]pyrrolidin-3-yl} -6-(trifluoromethyl)pyridin-2-amine]",≤ 10000
23,"Cn1cnc(S(=O)(=O)N2C[C@@H](Nc3cncc(C(F)(F)F)c3)[C@H](c3cccc(F)c3)C2)c1 (relative stereo) [Example 196, N-{trans-4-(3-fluorophenyl)-1-[(1-methyl-1H-imidazol-4-yl)sulfonyl]pyrrolidin-3-yl}-5-(trifluoromethyl)pyridin-3-amine]",≤ 10000
24,"Cn1cnc(S(=O)(=O)N2C[C@@H](Nc3ccc(F)c(F)c3)[C@H](c3cccc(F)c3)C2)c1 (relative stereo) [Example 197, trans-N-(3,4-difluorophenyl)-4-(3-fluorophenyl)-1-[(1-methyl-1H-imidazol-4-yl)sulfonyl]pyrrolidin-3-amine]",≤ 1000
25,"Cn1cnc(S(=O)(=O)N2C[C@@H](Nc3ccccc3)[C@H](c3ccccc3F)C2)c1 (relative stereo) [Example 198, trans-4-(2-fluorophenyl)-1-[(1-methyl-1H-imidazol-4-yl)sulfonyl]-N-phenylpyrrolidin-3-amine]",≤ 1000
26,"Cn1cnc(S(=O)(=O)N2C[C@@H](Nc3cccc(F)c3)[C@H](c3ccccc3F)C2)c1 (relative stereo) [Example 199, trans-4-(2-fluorophenyl)-N-(3-fluorophenyl)-1-[(1-methyl-1H-imidazol-4-yl)sulfonyl]pyrrolidin-3-amine]",≤ 1000
27,"Cn1cnc(S(=O)(=O)N2C[C@@H](Nc3ccc(F)cc3)[C@H](c3ccccc3F)C2)c1 (relative stereo) [Example 200, trans-4-(2-fluorophenyl)-N-(4-fluorophenyl)-1-[(1-methyl-1H-imidazol-4-yl)sulfonyl]pyrrolidin-3-amine]",≤ 1000
